Source: US20170066717A1, “NEW PHENYLAZETIDINECARBOXYLATE OR -CARBOXAMIDE COMPOUNDS” (INVENTIVA, priority 2014, published 2017)

Legend:
NURR-1/RXRγ = target: T1, NURR-1/RXRγ (Homo sapiens, UniProt P48443); assay: Transactivation test, NURR-1-Gal4/RXRγ, luciferase reporter in Cos-7 cells; format: cell-based; details: for Emax: COS-7, induction level relative to reference XCT0135908 at 2×10^−5 M (=100%), read-out: hNurr1_RXRgFL Emax (%); for EC50: Cos-7 cells, NURR-1-Gal4/RXRγ, luciferase reporter, read-out: hNurr1_RXRgFL EC50
T1 construct: expressed in transfected cells; host or cells: Cos-7 cells
T1 sequence (P48443 whole entry, the tested form may be a part): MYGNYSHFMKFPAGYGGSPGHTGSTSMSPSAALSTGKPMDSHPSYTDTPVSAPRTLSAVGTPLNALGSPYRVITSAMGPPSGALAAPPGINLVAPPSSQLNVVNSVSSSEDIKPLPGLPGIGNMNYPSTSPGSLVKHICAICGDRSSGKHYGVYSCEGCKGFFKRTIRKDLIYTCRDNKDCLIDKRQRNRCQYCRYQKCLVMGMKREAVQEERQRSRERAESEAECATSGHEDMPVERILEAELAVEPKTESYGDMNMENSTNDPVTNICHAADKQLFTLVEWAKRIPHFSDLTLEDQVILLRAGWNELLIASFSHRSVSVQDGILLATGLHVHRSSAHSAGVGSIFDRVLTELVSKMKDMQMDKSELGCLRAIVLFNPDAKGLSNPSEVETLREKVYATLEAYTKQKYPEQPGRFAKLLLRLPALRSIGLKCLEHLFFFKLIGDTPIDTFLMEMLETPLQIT
T1 sequence (P43354 whole entry partner, the tested form may be a part): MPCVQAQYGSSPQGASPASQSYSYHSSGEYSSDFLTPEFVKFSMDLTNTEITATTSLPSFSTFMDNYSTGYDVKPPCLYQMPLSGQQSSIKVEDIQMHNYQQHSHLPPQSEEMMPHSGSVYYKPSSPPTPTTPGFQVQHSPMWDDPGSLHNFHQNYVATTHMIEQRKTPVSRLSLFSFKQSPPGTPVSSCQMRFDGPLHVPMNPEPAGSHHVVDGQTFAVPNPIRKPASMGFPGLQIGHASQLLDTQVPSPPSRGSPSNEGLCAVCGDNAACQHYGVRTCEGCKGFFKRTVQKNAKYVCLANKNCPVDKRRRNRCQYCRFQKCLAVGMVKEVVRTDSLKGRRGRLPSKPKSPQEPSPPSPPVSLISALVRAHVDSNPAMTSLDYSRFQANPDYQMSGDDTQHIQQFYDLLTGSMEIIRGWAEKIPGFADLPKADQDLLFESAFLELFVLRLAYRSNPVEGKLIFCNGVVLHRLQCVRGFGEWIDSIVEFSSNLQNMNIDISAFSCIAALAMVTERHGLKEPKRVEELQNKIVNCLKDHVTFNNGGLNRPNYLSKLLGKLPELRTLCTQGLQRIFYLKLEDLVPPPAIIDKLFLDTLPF
T1 sequence (P04386 1-147 partner limits assumed): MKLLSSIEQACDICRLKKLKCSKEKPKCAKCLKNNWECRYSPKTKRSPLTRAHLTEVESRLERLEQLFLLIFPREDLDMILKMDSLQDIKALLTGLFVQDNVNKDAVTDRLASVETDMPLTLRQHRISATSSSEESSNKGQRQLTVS
Description: (§1) The ability of the compounds according to the invention to behave as an activator of the heterodimers formed by the NURR-1 nuclear receptor and the RXR nuclear receptors was measured by means of an in vitro test. A transactivation test was used as primary selection (screening) test. Cos-7 cells were cotransfected with a plasmid expressing a chimera of the human NURR-1-Gal4 receptor, a plasmid expressing the human RXR receptor (RXRα or RXRγ receptor) and a 5Gal4pGL3-TK-Luc reporter plasmid. The transfctions were carried out using a chemical agent (Jet PEI). The transfected cells were distributed into 384-well plates and left to stand for 21 hours. At time 24 hours the culture medium was changed. The test products were added (final concentration of between 10^''4 and 3×10^-10 M) to the culture medium. After incubation overnight, the lucifeiase expression was measured after addition of SteadyGlo according to the instructions of the manufacturer (Promega). […] The induction levels (Emax) were calculated relative to the basal activity of each heterodimer.

NURR-1/RXRα = target: T2, NURR-1/RXRα (Homo sapiens, UniProt P19793); assay: Transactivation test, NURR-1-Gal4/RXRα, luciferase reporter in Cos-7 cells; format: cell-based; details: for Emax: COS-7, induction level relative to reference XCT0135908 at 2×10^−5 M (=100%), read-out: hNurr1_RXRaFL Emax (%); for EC50: Cos-7 cells, NURR-1-Gal4/RXRα, luciferase reporter, read-out: hNurr1_RXRaFL EC50
T2 construct: expressed in transfected cells; host or cells: Cos-7 cells
T2 sequence (P19793 whole entry, the tested form may be a part): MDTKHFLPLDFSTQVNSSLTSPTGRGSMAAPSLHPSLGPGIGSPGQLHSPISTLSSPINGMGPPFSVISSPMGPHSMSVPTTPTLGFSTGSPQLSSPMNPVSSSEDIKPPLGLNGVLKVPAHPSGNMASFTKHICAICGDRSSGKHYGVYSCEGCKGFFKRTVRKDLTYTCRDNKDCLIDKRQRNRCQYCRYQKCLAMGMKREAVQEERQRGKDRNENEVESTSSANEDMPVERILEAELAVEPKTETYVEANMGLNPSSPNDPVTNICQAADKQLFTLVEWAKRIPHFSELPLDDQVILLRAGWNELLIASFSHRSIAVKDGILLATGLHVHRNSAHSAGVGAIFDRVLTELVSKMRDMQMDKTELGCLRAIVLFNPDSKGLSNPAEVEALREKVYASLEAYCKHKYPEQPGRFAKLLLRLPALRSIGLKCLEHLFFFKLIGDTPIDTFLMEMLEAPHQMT
T2 sequence (P43354 whole entry partner, the tested form may be a part): as the sequence (P43354 whole entry partner, the tested form may be a part) above
T2 sequence (P04386 1-147 partner limits assumed): as the sequence (P04386 1-147 partner limits assumed) above
Description: as §1

Row | SMILES | Emax (NURR-1/RXRγ) [%] | EC50 (NURR-1/RXRγ) [nM] | Emax (NURR-1/RXRα) [%] | EC50 (NURR-1/RXRα) [nM]
1 | O=C(O)C1CN(c2cccc(-c3cc4ccccc4c(Cl)n3)c2)C1 [Example 37, 1-[3-(1-chloro-3-isoquinoyl)phenyl]azetidine-3-carboxylic acid] | 99 | 3820 | 62 | > 5000
2 | Cc1cc(-c2cccc(C3=NC(C)(C)CO3)c2)cc(N2CC(C(=O)O)C2)c1 [Example 19, 1-[3-[3-(4,4-dimethyl-5H-oxazol-2-yl)phenyl]-5-methylphenyl]azetidine-3-carboxylic acid] | 71 | 1770 | 97 | 1430
3 | Cc1cc(-c2cccc(N(C)C)c2)cc(N2CC(C(=O)O)C2)c1 [Example 26, 1-[3-[3-(dimethylamino)phenyl]-5-methylphenyl]azetidine-3-carboxylic acid] | 116 | 314 | 108 | 124
4 | CN(C)c1cc(C(F)(F)F)cc(-c2cccc(N3CC(C(=O)O)C3)c2)n1 [Example 80, 1-[3-[6-(dimethylamino)-4-(trifluoromethyl)2-pyridyl]phenyl]azetidine-3-carboxylic acid] | 89 | 335 | 104 | 316
5 | O=C(O)C1CN(c2cccc(-c3cc(C(F)(F)F)cc(Cl)n3)c2)C1 [Example 74, 1-[3-[6-chloro-4-(trifluoromethyl)2-pyridyl]phenyl]azetidine-3-carboxylic acid] | 86 | 223 | 121 | 185
6 | Cc1cn(-c2cccc(N3CC(C(=O)NC4CCC(F)(F)CC4)C3)c2)c2ccc(C(F)(F)F)cc12 [Example 183, N-(4,4-difluorocyclophexyl)-1-[3-[3-5-(trifluoromethyl)indol-1-yl]phenyl]-azetidine-3-carboxamide] | 127 | 316 | 108 | 92
7 | O=C(O)C1CN(c2cccc(N3CCOc4cc(C(F)(F)F)ncc43)c2)C1 [Example 240, sodium 1-[3-[7-(trifluoromethyl)-2,3-dihydropurido[4,3][1,4]oxazin-4-yl]phenyl]azetidine-3-carboxylate] | 83 | 3260 | 98 | 1830
8 | Cc1cn(S(=O)(=O)c2cccc(N3CC(C(=O)O)C3)c2)c2ccc(C(F)(F)F)cc12 [Example 59, 1-[3-[3-methyl-5-(trifluoromethyl)indol-1-yl]sulfonylphenyl]azetidine-3-carboxylic acid] | 39 | 3580 | 68 | 1380
9 | Cc1cc(-c2cc(F)cc(Cl)c2)cc(N2CC(C(=O)O)C2)c1 [Example 18, 1-[3-(3-chloro-5-fluorophenyl)-5-methylphenyl]azetidine-3-carboxylic acid] | 93 | 157 | 95 | 67
10 | Cc1cn(-c2cccc(N3CC(C(=O)NCCCN4CCNCC4)C3)c2)c2ccc(C(F)(F)F)cc12 [Example 164, 1-[3-[3-methyl-5-(trifluoromethyl)indol-1-yl]phenyl]-N-(3-piperazia-1-ylpropyl)azetidine-3-carboxamide] | 88 | 1650 | 85 | 723
11 | Cc1cn(-c2cccc(N3CC(C(=O)NCCCCN(C)C)C3)c2)c2ccc(C(F)(F)F)cc12 [Example 175, N-[4-(dimethylamino)butyl]-1-[3-[3-methyl-5-(trifluoromethyl)indol-1yl]phenyl]-azatidine-3-carboxamide] | 84 | 1260 | 77 | 647
12 | CCCCOc1ccc(C(F)(F)F)cc1-c1cccc(N2CC(C(=O)O)C2)c1 [Example 89] | 64 | 21 | 61 | 23

More lines, now with the values ahead:

Row | Emax (NURR-1/RXRγ) [%] | EC50 (NURR-1/RXRγ) [nM] | Emax (NURR-1/RXRα) [%] | EC50 (NURR-1/RXRα) [nM] | SMILES
13 | 123 | 0.7 | 134 | 0.5 | Cc1cn(-c2cccc(N3CC(C(=O)O)C3)c2)c2ccc(C(F)(F)F)cc12 [Example 41, 1-[3-[3-methyl-5-(trifluoromethyl)indol-1-yl]phenyl]azetidine-3-carboxylic acid]
14 | 130 | 28 | 113 | 12 | Cc1cn(-c2cccc(N3CC(C(=O)NCCN4CCNC4=O)C3)c2)c2ccc(C(F)(F)F)cc12 [Example 176, 1-[3-[3-methyl-5-(trifluoromethyl)indol-1-yl]-phenyl]N-[2-(2-oximidazolidin-1-yl)ethyl]azetidine-3-carboxamide]
15 | 36 | 93 | 59 | 29 | COc1cccc(COc2ccc(C(F)(F)F)cc2-c2cccc(N3CC(C(=O)O)C3)c2)c1 [Example 92, 1-[3-[2-[(3-methoxyphenyl)methoxy]-5-(trifluoromethyl)phenyl]phenyl]azetidine-3-carboxylic acid]
16 | 117 | 4 | 105 | 3 | Cc1cn(-c2cccc(N3CC(C(=O)NCCCCO)C3)c2)c2ccc(C(F)(F)F)cc12 [Example 156, N-(4-hydroxybutyl)-1-[3-[3-methyl-5-(trifluorometyl)indol-1-yl]phenyl]azetidine-3-carboxamide]
17 | 110 | 86 | 103 | 54 | Cc1cn(-c2cccc(N3CC(C(=O)NC4CCOCC4)C3)c2)c2ccc(C(F)(F)F)cc12 [Example 180, 1-[3-[3-methyl-5-(trifluorometnyl)indol-1-yl]phenyl]-N-tetrahydropyran-4-yl-azetidine-3-carboxamide]
18 | 98 | 44 | 109 | 8 | CC1(C)CN(c2cccc(N3CC(C(=O)NCCO)C3)c2)c2ccc(C(F)(F)F)cc2O1 [Example 275, 1-[3-[2,2-dimethyl-7-(trifluoromethyl)-3H-1,4-benzoxazin-4-yl]phenyl]-N-(2-hydroxyethyl)azetidine-3-carboxamide]
19 | 108 | 20 | 103 | 15 | Cc1cn(-c2cccc(N3CC(C(=O)N(C)C)C3)c2)c2ccc(C(F)(F)F)cc12 [Example 165, N,N-dimethyl-1-[3-[3-methyl-5-(tirfluormethyl)indol-1-yl]phenyl]azetidine-3-carboxamide]
20 | 92 | 150 | 105 | 15 | CC1(C)CN(c2cccc(N3CC(C(=O)NC(CO)CO)C3)c2)c2ccc(C(F)(F)F)cc2O1 [Example 276, 1-[3-[2,2-dimethyl-7-(trifluoromethyl)-3H-1,4-benzoxazin-4-yl]phenyl]N-[2-hydroxy-1-(hydroxymethyl)ethyl]azetidine-3-carboxamide]
21 | 113 | 41 | 104 | 25 | Cc1cn(-c2cccc(N3CC(C(=O)NC4CCCC4)C3)c2)c2ccc(C(F)(F)F)cc12 [Example 166, N-cyclopetnyl-1-[3-[3-methyl-5-(trifluoromethyl)indol-1-yl]phenyl]azetidine-3-carboxamide]
22 | 82 | 5 | 86 | 2 | CN1CC(C)(C)Oc2cc(C(F)(F)F)cc(-c3cccc(N4CC(C(=O)O)C4)c3)c21 [Example 63, 1-[3-[2,2,4-trimethyl-7-(trifluoromethyl)-3H-1,4-benzoxazine-5-yl]phenyl]azetidine-3-carboylic acid]
23 | 97 | 19 | 99 | 8 | O=C(O)C1CN(c2cccc(-n3c(=O)n(CC4CCCC4)c4cc(C(F)(F)F)ccc43)c2)C1 [Example 149, 1-[3-[3-(cyclopetnylmethyl)-2-oxo-5-(trifluoromethyl)benzimidazol-1-yl]phenyl]azetidine-3-carboxylic acid]
24 |  | 116 | 105 | 7 | CCCc1ccc(C(C)C)cc1-c1cccc(N2CC(C(=O)O)C2)c1 [Example 195, piperazin-1-ium-1-[3-(5-isopropyl-2-propylphenyl)phenyl]azetidine-3-carboxylate]
25 | 94 | 27 | 115 | 19 | CC1(C)CN(c2cccc(N3CC(C(=O)O)C3)c2)c2ccc(Br)cc2O1 [Example 222, sodium 1-[3-(7-bromo-2,2-dimethyl-3H-1,4-benzoxazin-4-yl)phenyl]azetidine-3-carbxoylate]
26 | 129 | 123 | 96 | 37 | COc1ccc2c(c1)c(C)cn2-c1cc(C)cc(N2CC(C(=O)O)C2)c1 [Example 48, 1-[3-(5-methoxy-3-methylindol-1-yl)-5-methylphenyl]azetidine-3-carboxylic acid]
27 | 117 | 74 | 110 | 29 | CC1(C)CN(c2cccc(N3CC(C(=O)NCCCO)C3)c2)c2ccc(C(F)(F)F)cc2O1 [Example 278, 1-[3-[2,2-dimethyl-7-(trifgluoromethyl)-3H-1,4-benzoxazin-4-yl]phenyl]-N-(3-hydroxypropyl)azetidine-3-carboxamide]
